Data from patent US10307404B1, “Ocular formulations for drug-delivery to the posterior segment of the eye” (priority 2013, dated 2019).
Read-outs that look alike come from different tables or passages of the source.

Key:
[1] = 30-day topical ocular tolerability of cyclodextrin-based solutions; type: in vivo
[2] = PK of topical ocular sodium phosphate-based Gel Drop, concentrations 1 hour after last dose; type: in vivo, Dutch-belted rabbits; details: Dutch-belted, rabbit
Source text: The Gel Drop of Compound-I was applied to eyes of Dutch-belted rabbits.

Cl.NC(=O)c1c(OCc2c(F)cc(Br)cc2F)nsc1NC(=O)NCCCCN1CCCC1 [Compound-I, 3-[(4-bromo-2,6-difluorophenyl)methoxy]-5-[[[[4-(1-pyrrolidinyl)butyl]amino]carbonyl]amino]-4-isothiazolecarboxamide hydrochloride]
findings attributed to test-article or vehicle ([1]; 0.6% cyclodextrin-based solution, 30 days of topical ocular dosing): no untoward findings | ocular toxicity, clinical ophthalmic or microscopic examinations ([1]; rabbit, in vivo): No overt ocular toxicity | tolerability ([1]; rabbit, in vivo): well tolerated | concentration at 1 h ([2]; AH (aqueous humor), 2 mg/ml, pH 6, 2 mg/ml pH 6 BAK 0.005% Gly 2% Osmo 232, 3x/day 5 days, read-out: Mean [AH]): 30 nM | concentration at 1 h ([2]; AH (aqueous humor), 2 mg/ml, pH 6, 2 mg/ml pH 6.0 Phos 0.02% BAK 0.005% Gly 2% PS80 1% Tylox 0.2%, 3x/day 5 days, read-out: Mean [AH]): 13.8 nM | concentration at 1 h ([2]; AH (aqueous humor), 2 mg/ml, pH 6, 2 mg/ml pH 6 Phos 0.05% BAK 0.005% Gly 2% PS80 1% Osmo 261, 3x/day 5 days, read-out: Mean [AH]): 25.5 nM | concentration at 1 h ([2]; AH (aqueous humor), 2 mg/ml, pH 6, 2 mg/ml pH 6.0 Phos 0.05% BAK 0.005% Gly 2%, 3x/day 5 days, read-out: Mean [AH]): 32.2 nM | concentration at 1 h ([2]; AH (aqueous humor), 2 mg/ml, pH 6, 2 mg/ml pH 6.0 Phos 0.2% BAK 0.005% Gly 2%, 3x/day 5 days, read-out: Mean [AH]): 14.8 nM | concentration at 1 h ([2]; AH (aqueous humor), 4 mg/ml, pH 6, 4 mg/ml pH 6.0 Phos 0.2% BAK 0.005% Gly 2%, 3x/day 5 days, read-out: Mean [AH]): 25 nM | concentration at 1 h ([2]; AH (aqueous humor), 4 mg/ml, pH 6, 4 mg/ml pH 6.0 Phos 2% BAK 0.005% Gly 2% PS80 1% Tylox 0.2%, 3x/day 5 days, read-out: Mean [AH]): 21.1 nM | concentration at 1 h ([2]; AH (aqueous humor), 6 mg/ml, pH 5.9, 6 mg/ml pH 5.9 Phos 0.05% BAK 0.005% Gly 2% PS80 1% Tylox 0.1% Polox 0.2% Osmo 270, 3x/day 4 days, read-out: Mean [AH]): 222 nM | concentration at 1 h ([2]; AH (aqueous humor), 6 mg/ml, pH 5.9, 6 mg/ml pH 5.9 Phos 0.1% BAK 0.005% Gly 2% Polox 0.2% Osmo 257, 3x/day 4 days, read-out: Mean [AH]): 55.4 nM | concentration at 1 h ([2]; aqueous humor (AH), 1 mg/ml, pH 6, 1 mg/ml pH 6 BAK 0.005% Gly 2% Osmo 234, 3x/day 5 days, read-out: Mean [AH]): 17.1 nM | concentration at 1 h ([2]; aqueous humor (AH), 1 mg/ml, pH 6, 1 mg/ml pH 6.0 Phos 0.05% BAK 0.005% Gly 2% PS80 0.01% Tylox 0.2%, 3x/day 5 days, read-out: Mean [AH]): 9.09 nM | concentration at 1 h ([2]; aqueous humor (AH), 1 mg/ml, pH 6, 1 mg/ml pH 6 Phos 0.05% BAK 0.005% Gly 2%, 3x/day 5 days, read-out: Mean [AH]): 16.4 nM | concentration at 1 h ([2]; aqueous humor (AH), 1 mg/ml, pH 6, 1 mg/ml pH 6.0 Phos 0.2% BAK 0.005% Gly 2% PS80 1% Tylox 0.2%, 3x/day 5 days, read-out: Mean [AH]): 6.27 nM | concentration at 1 h ([2]; aqueous humor (AH), 1 mg/ml, pH 6, 1 mg/ml pH 6.0 Phos 0.2% BAK 0.005% Gly 2%, 3x/day 5 days, read-out: Mean [AH]): 20.6 nM | concentration at 1 h ([2]; aqueous humor (AH), 2 mg/ml, pH 6, 2 mg/ml pH 6 Phos 0.05% BAK 0.005% Gly 2% Osmo 244, 3x/day 5 days, read-out: Mean [AH]): 27.8 nM | concentration at 1 h ([2]; aqueous humor (AH), 2 mg/ml, pH 6, 2 mg/ml pH 6.0 Phos 0.05% BAK 0.005% Gly 2% PS80 1% Tylox 0.2%, 3x/day 5 days, read-out: Mean [AH]): 18.2 nM | concentration at 1 h ([2]; aqueous humor (AH), 2 mg/ml, pH 6, 2 mg/ml pH 6.0 Phos 0.1% BAK 0.005% Gly 2%, 3x/day 5 days, read-out: Mean [AH]): 18.9 nM | concentration at 1 h ([2]; aqueous humor (AH), 2 mg/ml, pH 6, 2 mg/ml pH 6 Phos 0.2% BAK 0.005% Gly 2% Osmo 257, 3x/day 5 days, read-out: Mean [AH]): 29.5 nM | concentration at 1 h ([2]; aqueous humor (AH), 2 mg/ml, pH 6, 2 mg/ml pH 6 Phos 0.2% BAK 0.005% Gly 2% PS80 1% Osmo 281, 3x/day 5 days, read-out: Mean [AH]): 19.7 nM | concentration at 1 h ([2]; aqueous humor (AH), 2 mg/ml, pH 6.1, 2 mg/ml pH 6.1 Phos […] Osmo 34, 3x/day 4 days, read-out: Mean [AH]): 13.7 nM | concentration at 1 h ([2]; choroid, 1 mg/ml, pH 6, 1 mg/ml pH 6 BAK 0.005% Gly 2% Osmo 234, 3x/day 5 days, read-out: MEAN [choroid]): 359 nM | concentration at 1 h ([2]; choroid, 1 mg/ml, pH 6, 1 mg/ml pH 6 BAK 0.005% Gly 2% PS80 1% Tylox 0.1% Polox 0.2% Osmo 237, 3x/day 5 days, read-out: MEAN [choroid]): 339 nM | concentration at 1 h ([2]; choroid, 1 mg/ml, pH 6, 1 mg/ml pH 6.0 Phos 0.05% BAK 0.005% Gly 2% PS80 0.01% Tylox 0.2%, 3x/day 5 days, read-out: MEAN [choroid]): 295 nM | concentration at 1 h ([2]; choroid, 1 mg/ml, pH 6, 1 mg/ml pH 6 Phos 0.05% BAK 0.005% Gly 2%, 3x/day 5 days, read-out: MEAN [choroid]): 398 nM | concentration at 1 h ([2]; choroid, 1 mg/ml, pH 6, 1 mg/ml pH 6.0 Phos 0.2% BAK 0.005% Gly 2% PS80 1% Tylox 0.2%, 3x/day 5 days, read-out: MEAN [choroid]): 423 nM | concentration at 1 h ([2]; choroid, 1 mg/ml, pH 6, 1 mg/ml pH 6.0 Phos 0.2% BAK 0.005% Gly 2%, 3x/day 5 days, read-out: MEAN [choroid]): 519 nM | concentration at 1 h ([2]; choroid, 1 mg/ml, pH 6.1, 1 mg/ml pH 6.1 BAK 0.005% Gly 2% Osmo 230, 3x/day 5 days, read-out: MEAN [choroid]): 537 nM | concentration at 1 h ([2]; choroid, 2 mg/ml, pH 5.9, 2 mg/ml pH 5.9 Phos 0.05% BAK 0.005% Gly 2% Osmo 233, 3x/day 5 days, read-out: MEAN [choroid]): 362 nM | concentration at 1 h ([2]; choroid, 2 mg/ml, pH 6, 2 mg/ml pH 6 BAK 0.005% Gly 2% Osmo 232, 3x/day 5 days, read-out: MEAN [choroid]): 589 nM | concentration at 1 h ([2]; choroid, 2 mg/ml, pH 6, 2 mg/ml pH 6.0 Phos 0.02% BAK 0.005% Gly 2% PS80 1% Tylox 0.2%, 3x/day 5 days, read-out: MEAN [choroid]): 599 nM | concentration at 1 h ([2]; choroid, 2 mg/ml, pH 6, 2 mg/ml pH 6 Phos 0.05% BAK 0.005% Gly 2% Osmo 244, 3x/day 5 days, read-out: MEAN [choroid]): 422 nM | concentration at 1 h ([2]; choroid, 2 mg/ml, pH 6, 2 mg/ml pH 6 Phos 0.05% BAK 0.005% Gly 2% PS80 1% Osmo 261, 3x/day 5 days, read-out: MEAN [choroid]): 559 nM | concentration at 1 h ([2]; choroid, 2 mg/ml, pH 6, 2 mg/ml pH 6.0 Phos 0.05% BAK 0.005% Gly 2%, 3x/day 5 days, read-out: MEAN [choroid]): 528 nM | concentration at 1 h ([2]; choroid, 2 mg/ml, pH 6, 2 mg/ml pH 6.0 Phos 0.1% BAK 0.005% Gly 2%, 3x/day 5 days, read-out: MEAN [choroid]): 525 nM | concentration at 1 h ([2]; choroid, 2 mg/ml, pH 6, 2 mg/ml pH 6 Phos 0.2% BAK 0.005% Gly 2% PS80 1% Osmo 281, 3x/day 5 days, read-out: MEAN [choroid]): 357 nM | concentration at 1 h ([2]; choroid, 2 mg/ml, pH 6, 2 mg/ml pH 6.0 Phos 0.2% BAK 0.005% Gly 2%, 3x/day 5 days, read-out: MEAN [choroid]): 532 nM | concentration at 1 h ([2]; choroid, 2 mg/ml, pH 6.1, 2 mg/ml pH 6.1 BAK 0.005% Gly 2% Osmo 229, 3x/day 5 days, read-out: MEAN [choroid]): 462 nM | concentration at 1 h ([2]; choroid, 2 mg/ml, pH 6.1, 2 mg/ml pH 6.1 Phos 0.05% BAK 0.005% Gly 2% PS80 1% Tylox 0.1% Osmo 239, 3x/day 5 days, read-out: MEAN [choroid]): 660 nM
